According to patent publication US9067934B2, “Bicyclic pyridinones” (Pfizer Inc., priority 2011, dated 2015):
Structures can show the parent of a compound that is named as a salt.

System: production of amyloid beta protein Aβ(1-42) (γ-secretase) in human WT-APP overexpressing CHO cells
Experiment: Cell-Based γ-Secretase Assay with ELISA Readout
Settings: human WT-APP overexpressing CHO cells, ~24 hours at 37° C., Aβ(1-42) ELISA; footnotes: a = geometric mean of >15 determinations, b = single determination, c = geometric mean of 7-15 determinations; read-out: Aβ 42B IC50 (Geometric Mean of 2-6 Determinations)
Method in brief: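 Human WT-APP-overexpressing CHO cells were pre-cultured 24 h at 37° C, then exposed to compounds (eleven-point half-log series, 1% final DMSO) for ~24 h. Aβ(1-42) in conditioned media was captured with Aβ(1-42)-specific antibody and detected with Eu-labeled 6e10 by DELFIA TRF. IC50 by nonlinear regression against min/max inhibition controls.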

Work on `Cc1cn(-c2ccc3n(c2=O)CCN(CCOc2ccccc2-c2cc(C(F)(F)F)no2)C3=O)cn1` [Example 72, 7-(4-methyl-1H-imidazol-1-yl)-2-(2-{2-[3-(trifluoromethyl)isoxazol-5-yl]phenoxy}ethyl)-3,4-dihydro-2H-pyrido[1,2-a]pyrazine-1,6-dione] yielded an IC50 of 14.8 nM.
`Cc1ccc(-c2ccccc2OCCN2CCn3c(ccc(-n4cnc(C)c4)c3=O)C2=O)cc1` [Example 93, 2-{2-[(4′-methylbiphenyl-2-yl)oxy]ethyl}-7-(4-methyl-1H-imidazol-1-yl)-3,4-dihydro-2H-pyrido[1,2-a]pyrazine-1,6-dione, formate salt] showed an IC50 of 75.8 nM.
Compound `Cc1cn(-c2ccc3n(c2=O)[C@@H](C)CN(CCOc2ccc(F)cc2C(F)(F)F)C3=O)cn1` [Example 112, (4S)-2-{2-[4-fluoro-2-(trifluoromethyl)phenoxy]ethyl}-4-methyl-7-(4-methyl-1H-imidazol-1-yl)-3,4-dihydro-2H-pyrido[1,2-a]pyrazine-1,6-dione] has an IC50 of 340 nM.
Work on `Cc1cn(-c2ccc3n(c2=O)CCN(CCOc2ccc(F)cc2-c2ccnc(C(F)(F)F)c2)C3=O)cn1` [Example 48, 2-(2-{4-fluoro-2-[2-(trifluoromethyl)pyridin-4-yl]phenoxy}ethyl)-7-(4-methyl-1H-imidazol-1-yl)-3,4-dihydro-2H-pyrido[1,2-a]pyrazine-1,6-dione] yielded an IC50 of 143 nM.
`Cc1cn(-c2ccc3n(c2=O)CCN(CCOc2ccc(F)cc2-n2ccc(C(F)(F)F)n2)C3=O)cn1` [Example 85, 2-(2-{4-fluoro-2-[3-(trifluoromethyl)-1H-pyrazol-1-yl]phenoxy}ethyl)-7-(4-methyl-1H-imidazol-1-yl)-3,4-dihydro-2H-pyrido[1,2-a]pyrazine-1,6-dione] showed an IC50 of 106 nM.
`COc1ccc2c(OCCN3CCn4c(ccc(-n5cnc(C)c5)c4=O)C3=O)cccc2c1F` [Example 64, 2-{2-[(5-fluoro-6-methoxy-1-naphthyl)oxy]ethyl}-7-(4-methyl-1H-imidazol-1-yl)-3,4-dihydro-2H-pyrido[1,2-a]pyrazine-1,6-dione, trifluoroacetate salt] showed an IC50 of 42.4 nM.
For `Cc1cn(-c2ccc3n(c2=O)CCN(CCOc2cccc4nc(C(F)(F)F)sc24)C3=O)cn1` [Example 97, 7-(4-methyl-1H-imidazol-1-yl)-2-(2-{[2-(trifluoromethyl)-1,3-benzothiazol-7-yl]oxy}ethyl)-3,4-dihydro-2H-pyrido[1,2-a]pyrazine-1,6-dione, trifluoroacetate salt], the IC50 was 21.3 nM.
With `Cc1cn(-c2ccc3n(c2=O)CCN(CCOc2cc(C(F)(F)F)nn2-c2ccc(F)cc2C)C3=O)cn1` [Example 56, 2-(2-{[1-(4-fluoro-2-methylphenyl)-3-(trifluoromethyl)-1H-pyrazol-5-yl]oxy}ethyl)-7-(4-methyl-1H-imidazol-1-yl)-3,4-dihydro-2H-pyrido[1,2-a]pyrazine-1,6-dione] the IC50 was 399 nM.
`CCC(COc1ccc(F)cc1C(F)(F)F)N1CCn2c(ccc(-n3cnc(C)c3)c2=O)C1=O` (stereo not shown) [Example 103, 2-{1-[4-fluoro-2-(trifluoromethyl)phenoxy]butan-2-yl}-7-(4-methyl-1H-imidazol-1-yl)-3,4-dihydro-2H-pyrido[1,2-a]pyrazine-1,6-dione] gave an IC50 of 596 nM.
For `Cc1cn(-c2ccc3n(c2=O)CCN(CCOc2ccccc2C(C)(C)C)C3=O)cn1` [Example 13, 2-[2-(2-tert-butylphenoxy)ethyl]-7-(4-methyl-1H-imidazol-1-yl)-3,4-dihydro-2H-pyrido[1,2-a]pyrazine-1,6-dione], the IC50 was 108 nM.
In the case of `Cc1cn(-c2ccc3n(c2=O)CCN(C(C)C(C)Oc2ccccc2S(F)(F)(F)(F)F)C3=O)cn1` (single isomer, unassigned) [Example 125, 7-(4-methyl-1H-imidazol-1-yl)-2-{3-[2-(pentafluoro-λ^6-sulfanyl)phenoxy]butan-2-yl}-3,4-dihydro-2H-pyrido[1,2-a]pyrazine-1,6-dione], the IC50 is reported as 653 nM.
For `Cc1cn(-c2ccc3n(c2=O)CCN(C(C)COc2ccc(F)cc2C(F)(F)F)C3=O)cn1` (stereo not shown) [Example 55, 2-{2-[4-fluoro-2-(trifluoromethyl)phenoxy]-1-methylethyl}-7-(4-methyl-1H-imidazol-1-yl)-3,4-dihydro-2H-pyrido[1,2-a]pyrazine-1,6-dione, formate salt], the IC50 was 168 nM.
Work on `Cc1cn(-c2ccc3n(c2=O)CCN(CCOc2cccc4ccc(F)cc24)C3=O)cn1` [Example 83, 2-{2-[(7-fluoronaphthalen-1-yl)oxy]ethyl}-7-(4-methyl-1H-imidazol-1-yl)-3,4-dihydro-2H-pyrido[1,2-a]pyrazine-1,6-dione] yielded an IC50 of 12.3 nM.
`Cc1cn(-c2ccc3n(c2=O)CCN(CCOc2ccccc2C2CCC2)C3=O)cn1` [Example 25, 2-[2-(2-cyclobutylphenoxy)ethyl]-7-(4-methyl-1H-imidazol-1-yl)-3,4-dihydro-2H-pyrido[1,2-a]pyrazine-1,6-dione] was tested, and the IC50 was 73.2 nM.
With `Cc1cn(-c2ccc3n(c2=O)CCN(CCOc2ccc(F)cc2C(C)(C)C(F)(F)F)C3=O)cn1` [Example 105, 2-{2-[4-fluoro-2-(1,1,1-trifluoro-2-methylpropan-2-yl)phenoxy]ethyl}-7-(4-methyl-1H-imidazol-1-yl)-3,4-dihydro-2H-pyrido[1,2-a]pyrazine-1,6-dione] the IC50 was 25.2 nM.
Compound `Cc1cn(-c2ccc3n(c2=O)CCN(CCOc2cccc(C(F)(F)F)c2Cl)C3=O)cn1` [Example 20, 2-{2-[2-chloro-3-(trifluoromethyl)phenoxy]ethyl}-7-(4-methyl-1H-imidazol-1-yl)-3,4-dihydro-2H-pyrido[1,2-a]pyrazine-1,6-dione] has an IC50 of 157 nM.
With `Cc1cn(-c2ccc3n(c2=O)CCN(CCOc2ccccc2-c2coc(C)n2)C3=O)cn1` [Example 41, 7-(4-methyl-1H-imidazol-1-yl)-2-{2-[2-(2-methyl-1,3-oxazol-4-yl)phenoxy]ethyl}-3,4-dihydro-2H-pyrido[1,2-a]pyrazine-1,6-dione, trifluoroacetate salt] the IC50 was 156 nM.
For `Cc1ncc(-c2ccc3n(c2=O)CCN(CCOc2cccc4ccc(F)cc24)C3=O)o1` [Example 2, 2-{2-[(7-Fluoronaphthalen-1-yl)oxy]ethyl}-7-(2-methyl-1,3-oxazol-5-yl)-3,4-dihydro-2H-pyrido[1,2-a]pyrazine-1,6-dione], the IC50 was 434 nM.
With `Cc1cn(-c2ccc3n(c2=O)CCN(CCOc2cc(C(F)(F)F)nc4c(Cl)ccc(F)c24)C3=O)cn1` [Example 66, 2-(2-{[8-chloro-5-fluoro-2-(trifluoromethyl)quinolin-4-yl]oxy}ethyl)-7-(4-methyl-1H-imidazol-1-yl)-3,4-dihydro-2H-pyrido[1,2-a]pyrazine-1,6-dione] the IC50 was 52.4 nM.
`Cc1cn(-c2ccc3n(c2=O)CCN(CCOc2cccc(Oc4ccccc4)c2)C3=O)cn1` [Example 19, 7-(4-methyl-1H-imidazol-1-yl)-2-[2-(3-phenoxyphenoxy)ethyl]-3,4-dihydro-2H-pyrido[1,2-a]pyrazine-1,6-dione] gave an IC50 of 203 nM.
In the case of `Cc1cn(-c2ccc3n(c2=O)CCN([C@@H](C)COc2ccc(F)cc2[C@@H](C)C(F)(F)F)C3=O)cn1` [Example 118, 2-[(2S)-1-{4-Fluoro-2-[(2R)-1,1,1-trifluoropropan-2-yl]phenoxy}propan-2-yl]-7-(4-methyl-1H-imidazol-1-yl)-3,4-dihydro-2H-pyrido[1,2-a]pyrazine-1,6-dione], the IC50 is reported as less than 6.64 nM.
Work on `Cc1cn(-c2ccc3n(c2=O)CCN(CCOc2cc(C(F)(F)F)nc4c(C)ccc(Cl)c24)C3=O)cn1` [Example 51, 2-(2-{[5-chloro-8-methyl-2-(trifluoromethyl)quinolin-4-yl]oxy}ethyl)-7-(4-methyl-1H-imidazol-1-yl)-3,4-dihydro-2H-pyrido[1,2-a]pyrazine-1,6-dione] yielded an IC50 of 20 nM.
Compound `Cc1cn(-c2ccc3n(c2=O)CCN(CCOc2ccccc2-c2ccc(Cl)cc2)C3=O)cn1` [Example 94, 2-{2-[(4′-chlorobiphenyl-2-yl)oxy]ethyl}-7-(4-methyl-1H-imidazol-1-yl)-3,4-dihydro-2H-pyrido[1,2-a]pyrazine-1,6-dione, formate salt] has an IC50 of 108 nM.
Work on `O=C1c2ccc(-n3cnc(Cl)c3)c(=O)n2CCN1CCOc1ccccc1C(F)(F)F` [Example 114, 7-(4-chloro-1H-imidazol-1-yl)-2-{2-[2-(trifluoromethyl)phenoxy]ethyl}-3,4-dihydro-2H-pyrido[1,2-a]pyrazine-1,6-dione] yielded an IC50 of 1320 nM.
`Cc1cn(-c2ccc3n(c2=O)CCN(CCOc2ccc(Cl)c(Cl)c2Cl)C3=O)cn1` [Example 27, 7-(4-methyl-1H-imidazol-1-yl)-2-[2-(2,3,4-trichlorophenoxy)ethyl]-3,4-dihydro-2H-pyrido[1,2-a]pyrazine-1,6-dione] gave an IC50 of 103 nM.
Work on `Cc1cn(-c2ccc3n(c2=O)CCN([C@@H](C)COc2ccc(F)cc2C(F)(F)F)C3=O)cn1` [Example 57, 2-{(1S)-2-[4-fluoro-2-(trifluoromethyl)phenoxy]-1-methylethyl}-7-(4-methyl-1H-imidazol-1-yl)-3,4-dihydro-2H-pyrido[1,2-a]pyrazine-1,6-dione] yielded an IC50 of 113 nM.
Work on `Cc1cn(-c2ccc3n(c2=O)CCN(CCOc2cccc(-n4ccc(C(F)(F)F)n4)c2)C3=O)cn1` [Example 81, 7-(4-methyl-1H-imidazol-1-yl)-2-(2-{3-[3-(trifluoromethyl)-1H-pyrazol-1-yl]phenoxy}ethyl)-3,4-dihydro-2H-pyrido[1,2-a]pyrazine-1,6-dione, trifluoroacetate salt] yielded an IC50 of 384 nM.
Compound `Cc1cn(-c2ccc3n(c2=O)CCN(CCOc2ccc(C(F)(F)F)nc2C(F)(F)F)C3=O)cn1` [Example 31, 2-(2-{[2,6-bis(trifluoromethyl)pyridin-3-yl]oxy}ethyl)-7-(4-methyl-1H-imidazol-1-yl)-3,4-dihydro-2H-pyrido[1,2-a]pyrazine-1,6-dione] has an IC50 of 96.8 nM.
